Results taken from ChEMBL document CHEMBL1201862, “PubChem BioAssay data set” (2004).
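These data come from cells grown in 96-well plates and exposed to compound for 48 hours at five concentrations. Abbreviation: GI50, concentration required for 50% inhibition of growth.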 Active and inactive are the calls of the source. No stated cut-off is given here; in the data, active = GI50 up to about 1.1 µM and inactive = higher.

Key:
Test in all cases: NCI-60 cell line screen, 48 h
[1] = system: HCT-116
[2] = system: MDA-MB-435
[3] = system: RXF 393
[4] = system: ACHN
[5] = system: MOLT-4
[6] = system: OVCAR-3
[7] = system: T47D
[8] = system: NCI/ADR-RES
[9] = system: UACC-257
[10] = system: SW-620
[11] = system: PC-3
[12] = system: NCI-H23
[13] = system: M14
[14] = system: MDA-MB-231
[15] = system: SK-MEL-28
[16] = system: CAKI-1
[17] = system: HCC 2998
[18] = system: SNB-75
[19] = system: A549
[20] = system: HOP-92

Row | Compound | GI50 [1] | GI50 [2] | GI50 [3] | GI50 [4] | GI50 [5] | GI50 [6] | GI50 [7] | GI50 [8] | GI50 [9] | GI50 [10] | GI50 [11] | GI50 [12] | GI50 [13] | GI50 [14] | GI50 [15] | GI50 [16] | GI50 [17] | GI50 [18] | GI50 [19] | GI50 [20]
1 | Clc1ccc(OCc2nn3c(CCc4nnc5sc(COc6ccc(Cl)cc6)nn45)nnc3s2)cc1 | 21.9 µM (inactive) | 24.9 µM (inactive) | 23.8 µM (inactive) | 15.1 µM (inactive) | 6.62 µM (inactive) | 16 µM (inactive) | 22.4 µM (inactive) | 8.15 µM (inactive) | 22.9 µM (inactive) | 25.2 µM (inactive) | 15.6 µM (inactive) | 15.3 µM (inactive) | 33.7 µM (inactive) | 19.8 µM (inactive) | 33.9 µM (inactive) | 3.35 µM (inactive) | – | – | – | –
2 | CC1C(c2ccccc2O)c2cc3c(cc2OC1N1CCCC1)OCO3 (centres undefined) | 19.5 µM (inactive) | 26.9 µM (inactive) | 13.7 µM (inactive) | 32.7 µM (inactive) | 19.6 µM (inactive) | 20.9 µM (inactive) | 34.7 µM (inactive) | – | 25.1 µM (inactive) | 20.8 µM (inactive) | 28.1 µM (inactive) | 39 µM (inactive) | 17.9 µM (inactive) | 27.8 µM (inactive) | 20.4 µM (inactive) | 34.7 µM (inactive) | 40.6 µM (inactive) | 22.2 µM (inactive) | 31 µM (inactive) | 19.8 µM (inactive)
3 | CC(C)(C)OC(=O)N1C(=O)OC[C@@H]2C=C[C@@H]21 | > 100 µM (inactive) | > 100 µM (inactive) | > 100 µM (inactive) | > 100 µM (inactive) | > 100 µM (inactive) | > 100 µM (inactive) | > 100 µM (inactive) | > 100 µM (inactive) | > 100 µM (inactive) | > 100 µM (inactive) | > 100 µM (inactive) | > 100 µM (inactive) | > 100 µM (inactive) | > 100 µM (inactive) | > 100 µM (inactive) | > 100 µM (inactive) | – | – | > 100 µM (inactive) | > 100 µM (inactive)
4 | CC(=O)Nc1ccc2c(c1)nc1c3ccccc3ccn21 | 55.6 µM (inactive) | > 100 µM (inactive) | 99.1 µM (inactive) | > 100 µM (inactive) | > 100 µM (inactive) | – | > 100 µM (inactive) | > 100 µM (inactive) | > 100 µM (inactive) | > 100 µM (inactive) | > 100 µM (inactive) | > 100 µM (inactive) | > 100 µM (inactive) | > 100 µM (inactive) | > 100 µM (inactive) | 96.4 µM (inactive) | – | 71.9 µM (inactive) | > 100 µM (inactive) | > 100 µM (inactive)
5 | O=C(CN1CCNCCN(CC(=O)N2CCCCC2)CCNCC1)N1CCCCC1 | 42.5 µM (inactive) | > 100 µM (inactive) | – | > 100 µM (inactive) | 84.7 µM (inactive) | > 100 µM (inactive) | > 100 µM (inactive) | > 100 µM (inactive) | > 100 µM (inactive) | 58.2 µM (inactive) | > 100 µM (inactive) | – | > 100 µM (inactive) | > 100 µM (inactive) | > 100 µM (inactive) | > 100 µM (inactive) | – | > 100 µM (inactive) | 50.8 µM (inactive) | > 100 µM (inactive)
6 | O=S(=O)(O)c1ccc2c(/N=N/c3ccc(Cl)cc3)c(O)ccc2c1 | > 100 µM (inactive) | > 100 µM (inactive) | > 100 µM (inactive) | > 100 µM (inactive) | > 100 µM (inactive) | > 100 µM (inactive) | 89.3 µM (inactive) | > 100 µM (inactive) | > 100 µM (inactive) | > 100 µM (inactive) | > 100 µM (inactive) | > 100 µM (inactive) | > 100 µM (inactive) | > 100 µM (inactive) | > 100 µM (inactive) | > 100 µM (inactive) | – | > 100 µM (inactive) | > 100 µM (inactive) | > 100 µM (inactive)
7 | CC(=O)NNc1nc(-c2ccc([N+](=O)[O-])cc2)c(C#N)c(=O)n1C | 34.5 µM (inactive) | 50.6 µM (inactive) | 57 µM (inactive) | > 100 µM (inactive) | 36.8 µM (inactive) | 15.3 µM (inactive) | > 100 µM (inactive) | > 100 µM (inactive) | > 100 µM (inactive) | 33.4 µM (inactive) | 37.7 µM (inactive) | 29.4 µM (inactive) | > 100 µM (inactive) | 15.8 µM (inactive) | > 100 µM (inactive) | 79.8 µM (inactive) | – | 18.9 µM (inactive) | > 100 µM (inactive) | 13.5 µM (inactive)
8 | CN1CCN(CCCBr)CC1 | > 100 µM (inactive) | > 100 µM (inactive) | > 100 µM (inactive) | > 100 µM (inactive) | – | > 100 µM (inactive) | > 100 µM (inactive) | > 100 µM (inactive) | > 100 µM (inactive) | > 100 µM (inactive) | > 100 µM (inactive) | > 100 µM (inactive) | > 100 µM (inactive) | > 100 µM (inactive) | > 100 µM (inactive) | – | – | > 100 µM (inactive) | > 100 µM (inactive) | > 100 µM (inactive)
9 | N#C[BH2-][n+]1cn(C2CC(O)C(COP(=O)(O)OC3CC(n4ccc(N)nc4=O)OC3CO)O2)c2nc(N)[nH]c(=O)c21 (centres undefined) | > 100 µM (inactive) | – | > 100 µM (inactive) | > 100 µM (inactive) | > 100 µM (inactive) | > 100 µM (inactive) | > 100 µM (inactive) | > 100 µM (inactive) | > 100 µM (inactive) | – | > 100 µM (inactive) | > 100 µM (inactive) | > 100 µM (inactive) | > 100 µM (inactive) | – | > 100 µM (inactive) | > 100 µM (inactive) | > 100 µM (inactive) | > 100 µM (inactive) | > 100 µM (inactive)
10 | CCOC(=O)c1cccn1S(=O)(=O)c1cc(Cl)ccc1NC(=O)CC | 40 µM (inactive) | 33.3 µM (inactive) | 91 µM (inactive) | > 100 µM (inactive) | 47.8 µM (inactive) | > 100 µM (inactive) | 44.9 µM (inactive) | – | > 100 µM (inactive) | > 100 µM (inactive) | 59.2 µM (inactive) | – | – | 39.2 µM (inactive) | > 100 µM (inactive) | > 100 µM (inactive) | – | 33.3 µM (inactive) | 54.1 µM (inactive) | > 100 µM (inactive)
11 | CN1CCCN(C)C1c1cc([N+](=O)[O-])ccc1O | 32.6 µM (inactive) | 31.2 µM (inactive) | 41.4 µM (inactive) | 20.9 µM (inactive) | 22.1 µM (inactive) | 41.8 µM (inactive) | 47.6 µM (inactive) | 35.6 µM (inactive) | 19 µM (inactive) | 70.6 µM (inactive) | 23.6 µM (inactive) | 89.1 µM (inactive) | 19.1 µM (inactive) | 24.9 µM (inactive) | 27.9 µM (inactive) | > 100 µM (inactive) | – | 31.1 µM (inactive) | > 100 µM (inactive) | 20.2 µM (inactive)
12 | N#CC1=C(Nc2ccccc2)SC=C(c2ccccc2)N=C1NCc1ccccc1 | > 100 µM (inactive) | > 100 µM (inactive) | > 100 µM (inactive) | > 100 µM (inactive) | 72.6 µM (inactive) | > 100 µM (inactive) | > 100 µM (inactive) | > 100 µM (inactive) | – | > 100 µM (inactive) | > 100 µM (inactive) | > 100 µM (inactive) | > 100 µM (inactive) | > 100 µM (inactive) | > 100 µM (inactive) | > 100 µM (inactive) | – | – | > 100 µM (inactive) | –
13 | Cc1ccc(S(=O)(=O)n2ccn3c(=O)cc(C)nc23)cc1 | > 10 µM (inactive) | > 10 µM (inactive) | > 10 µM (inactive) | > 10 µM (inactive) | > 10 µM (inactive) | > 10 µM (inactive) | > 10 µM (inactive) | > 10 µM (inactive) | > 10 µM (inactive) | > 10 µM (inactive) | > 10 µM (inactive) | > 10 µM (inactive) | > 10 µM (inactive) | > 10 µM (inactive) | > 10 µM (inactive) | > 10 µM (inactive) | – | > 10 µM (inactive) | > 10 µM (inactive) | > 10 µM (inactive)
14 | C=CCN1C(=O)C=C(c2ccccc2)n2ncc3cccc1c32 | > 100 µM (inactive) | 1.46 µM (inactive) | – | > 100 µM (inactive) | > 100 µM (inactive) | > 100 µM (inactive) | 18.2 µM (inactive) | > 100 µM (inactive) | > 100 µM (inactive) | > 100 µM (inactive) | > 100 µM (inactive) | > 100 µM (inactive) | > 100 µM (inactive) | > 100 µM (inactive) | > 100 µM (inactive) | > 100 µM (inactive) | – | – | > 100 µM (inactive) | 27.7 µM (inactive)
15 | CC(C)(C)[Si](C)(C)OCCc1ccccc1C1CC2(S(=O)(=O)c3ccccc3)ON1CC2S(=O)(=O)c1ccccc1 (centres undefined) | > 100 µM (inactive) | > 100 µM (inactive) | > 100 µM (inactive) | > 100 µM (inactive) | > 100 µM (inactive) | > 100 µM (inactive) | < 0.01 µM (active) | > 100 µM (inactive) | > 100 µM (inactive) | > 100 µM (inactive) | – | > 100 µM (inactive) | > 100 µM (inactive) | > 100 µM (inactive) | > 100 µM (inactive) | – | > 100 µM (inactive) | > 100 µM (inactive) | > 100 µM (inactive) | –
